MIC data for one compound are collected here from ChEMBL document CHEMBL1671658, “VanA-type vancomycin-resistant Staphylococcus aureus” (2009).

In brackets after ≈: the same amount, converted by molar mass. Where only a bound is given, the exact number is not on record here.

Assay [1] has as its system Staphylococcus aureus. As to the kind of experiment: Antibacterial activity against VanA-type vancomycin-resistant Staphylococcus aureus isolate 1 harboring vanA operon.
Assay [2] relates to Staphylococcus aureus. Description: Antibacterial activity against VanA-type vancomycin-resistant Staphylococcus aureus isolate 2 harboring vanA operon.
Assay [3] concerns Staphylococcus aureus. As to the kind of experiment: Antibacterial activity against VanA-type vancomycin-resistant Staphylococcus aureus isolate 3 harboring vanA operon.
For assay [4], the system named is Staphylococcus aureus. Description: Antibacterial activity against high-level-resistant vancomycin-resistant Staphylococcus aureus harboring Tn1546 element.

The MIC is the lowest concentration found to suppress growth. A lower MIC goes with greater potency. Regarding `CN[C@H](CC(C)C)C(=O)N[C@H]1C(=O)N[C@@H](CC(N)=O)C(=O)N[C@H]2C(=O)N[C@H]3C(=O)N[C@H](C(=O)N[C@H](C(=O)O)c4cc(O)cc(O)c4-c4cc3ccc4O)[C@H](O)c3ccc(c(Cl)c3)Oc3cc2cc(c3O[C@@H]2O[C@H](CO)[C@@H](O)[C@H](O)[C@H]2O[C@H]2C[C@](C)(N)[C@H](O)[C@H](C)O2)Oc2ccc(cc2Cl)[C@H]1O` [VANCOMYCIN], the MIC is over 256 µg/mL against Staphylococcus aureus [1], 32 µg/mL (≈ 22.1 µM) against Staphylococcus aureus [2], 64 µg/mL (≈ 44.2 µM) with Staphylococcus aureus [3] and over 256 µg/mL against Staphylococcus aureus [4].
